pIC50, pKd: −log10 of the molar value.
Experiments:
C57BL/6 male mice [1] = assay: Conditioned avoidance response (CAR) model of psychosis; format: in vivo; conditions: for number of avoidance responses (CAR) vs vehicle: 30 trials; for conditioned avoidance response (CAR) in trained mice as compared to vehicle control: mouse, in vivo
From the text: Conditioned avoidance response (CAR) is a behavioral test to evaluate antipsychotic effect of a test compound. […] Each chamber is fitted with metal grid floor that is capable of delivering electric shocks independently. A computer program is used to implement the testing paradigm as well as record the animal's movement between the two chambers through infrared beam sensors. The testing paradigm is as the follows. A mouse is placed into one chamber. A light (conditioned stimulus, CS) comes on. Five seconds later, mild electric shocks (0.4 mA) (unconditioned stimulus, US) are delivered to the chamber where the mouse is located (as detected by infrared beams) until the mouse escapes to the adjacent chamber or until 10 sec has elapsed. The US and CS always co-terminate. With randomized inter-trial intervals averaging 15 sec, 30 such CS-US pairing trials are given to each mouse each day. For each trial, an escape response is registered if the mouse crosses to the other chamber after being shocked (i.e., during the 10-sec US period), and an avoidance response is registered if the mouse crosses to the other chamber during the first 5-sec CS only period. The animals are trained in such paradigm for 15-20 days, during which the average percentage of avoidance responses will improve to 60-80%. […] These trained animals are then used for compound testing using the same paradigm.
The mice were then injected with either compound or vehicle via i.p., and 20 minutes later they were tested for 30 trials in the CAR paradigm. Vehicle treatment and compound treatment were given to the same animals on alternating days, and the effect of compound in reducing avoidance response was analyzed through within-subject comparison (paired t-test). […] The mice were then given either vehicle (15 minutes prior to testing) or compound (25 minutes prior to testing) via oral gavage, and were tested for 30 trials in the CAR paradigm. Vehicle treatment and compound treatment were given to the same animals on alternating days, and the effect of compound in reducing avoidance response was analyzed through within-subject comparison (paired t-test).
The mice were then given either vehicle (15 minutes prior to testing) or compound (25 minutes prior to testing) via oral gavage, and then were tested for 30 trials in the CAR paradigm. Vehicle treatment and compound treatment were given to the same animals on alternating days, and the effect of compound in reducing avoidance response was analyzed through within-subject comparison (paired t-test).
The mice were then given either vehicle (15 minutes prior to testing) or compound (25 minutes prior to testing) via oral gavage, and were then tested for 30 trials in the CAR paradigm. Vehicle treatment and compound treatment were given to the same animals on alternating days, and the effect of compound in reducing avoidance response was analyzed through within-subject comparison (paired t-test).
The mice were then given either vehicle (15 minutes prior to testing) or compound (25 minutes prior to testing) via oral gavage, and were tested for 30 trials in the CAR paradigm.

C57BL/6 male mice [2] = assay: PCP-induced hyperactivity (psychostimulant-induced model of psychosis); format: in vivo; conditions: mouse, in vivo
Procedure: Psychostimulant-induced hyperactivity is measured by injecting animals with PCP and monitoring the animals' activity levels in the VersaMax chambers (Accuscan Instruments, Columbus, Ohio) measuring 40×40 cm. Locomotor activity is detected by photobeam breaks as the animal crosses each beam. The animal is placed in the center of the field and left undisturbed for a period of time (20 min to 2 hr) to measure its spontaneous activity in a novel environment. Measurements used to assess locomotor activity include: horizontal activity, total distance traveled, vertical activity (rearing events—animal raises up on hindlimbs), rotation, stereotypy, and distance traveled in the center compared to total distance traveled (center: total distance ratio). The NMDA antagonist PCP induces psychosis-like conditions manifested as hyperactivity and increased stereotypic behavior. Known antipsychotics are able to reverse psychostimulant-induced hyperactivity and increased stereotypy.
C57BL/6 male mice were injected with either compound (10 mg/kg) or vehicle via i.p. Ten minutes later, the mice were injected with PCP (5 mg/kg) via i.p. The mice were placed in the activity chambers 10 minutes after PCP injection and their locomotor activities were monitored by infrared beam breaks for 20 min.
(§1) C57BL/6 male mice were administered either compound or vehicle via oral gavage. Fifteen minutes later, the mice were injected with PCP (5 mg/kg) via the i.p. route. The mice were placed in activity chambers 10 minutes after PCP injection, and their locomotor activity in the horizontal dimension was monitored by infrared beam breaks for 20 min (5 consecutive 4-minute intervals (INT) as indicated).
as §1, with “Twenty-five” for “Fifteen”, “injection” for “injection,”
C57BL/6 male mice were given either compound or vehicle by oral gavage. Twenty-five minutes later they were injected with PCP (5 mg/kg, i.p.). Ten minutes later, the mice were placed in activity chambers, and their locomotor activity in the horizontal dimension was monitored by infrared beam breaks for 20 min (5 consecutive 4-minute intervals (INT) as indicated).
C57BL/6 male mice were co-injected with PCP (5 mg/kg) and either compound or vehicle via the i.p. route. Ten minutes later, the mice were placed in activity chambers and their locomotor activity in the horizontal dimension was monitored by infrared beam breaks for 20 min (5 consecutive 4-minute intervals (INT) as indicated).
as §1, with “oral gavage. Twenty-five minutes later,” for “oral gavage. Fifteen minutes later,”, “placed in the activity chambers” for “placed in activity chambers”, “after PCP injection and their” for “after PCP injection, and their”
C57BL/6 male mice were administered either compound or vehicle via oral gavage. Twenty-five minutes later, the mice were injected with PCP (5 mg/kg) via the i.p. route. The mice were placed in the activity chambers 10 minutes after injection and their locomotor activity in the horizontal dimension was monitored by infrared beam breaks for 20 min (5 consecutive 4-minute intervals as indicated).

PDE10 [3] = conditions: cited from earlier work
PDE10 [4] = conditions: cGMP binding to PDE10; read-out: dissociation constant (Kd); cited from earlier work

| SMILES | number of avoidance responses (CAR) vs vehicle (C57BL/6 male mice [1]; 10 mg/kg oral) | number of avoidance responses (CAR) vs vehicle (C57BL/6 male mice [1]; 30 mg/kg oral) | conditioned avoidance response (CAR) in trained mice as compared to vehicle control (C57BL/6 male mice [1]) | PCP-induced hyperactivity compared to vehicle+PCP control (C57BL/6 male mice [2]) | hyperactivity of mice in PCP-induced model of psychosis as compared to vehicle control (C57BL/6 male mice [2]) | pIC50 (PDE10 [3]; read-out: IC50 (50% inhibitory concentration), inhibition of PDE10) | Km (PDE10 [3]; substrate hydrolysis by PDE10) [µM] | pKd (PDE10 [4]) |
| --- | --- | --- | --- | --- | --- | --- | --- | --- |
| COc1cc(/C=N/NC(=O)C(OC)c2ccc(-n3cccn3)cc2)cc(OC)c1Br (stereo not drawn) [Compound 12-104] | significantly reduces the number of avoidance response | significantly reduces the number of avoidance response | significantly reduces a conditioned avoidance response | reduces or abolishes the hyperactivity | significantly reduces hyperactivity |  |  |  |
| COc1cc(/C=N/NC(=O)C(OC)c2ccc(N3CCOCC3)cc2)cc(OC)c1Br (stereo not drawn) [Compound 12-114] | significantly reduces the number of avoidance response |  | significantly reduces a conditioned avoidance response | completely abolishes the hyperactivity | significantly reduces hyperactivity |  |  |  |
| CC(C)Cn1c(=O)n(C)c(=O)c2[nH]cnc21 [IBMX, reference compound] |  |  |  |  |  | 5.59 |  |  |
| Nc1nc2c(ncn2[C@@H]2O[C@@H]3COP(=O)(O)O[C@H]3[C@H]2O)c(=O)[nH]1 [cGMP] |  |  |  |  |  |  | 3 | < 5.05 |
